Our source for the GI50 and TGI values is PubChem BioAssay (NCI).

“And” between values parts separate entries of the source, which are not always exact repeats. Identical values can stand only once.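 96-well plates; 48 h exposure; 5 concentrations. Endpoints by linear interpolation between flanking doses. Not reached: highest tested concentration assigned. GI50 is the concentration that inhibits growth by half. At the TGI there is no net growth.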

Test systems include CAKI-1 renal; HT29 colon; HL-60(TB) leukemia; SF-268 CNS; SF-539 CNS; OVCAR-3 ovarian; ACHN renal; LOX IMVI melanoma; SK-MEL-5 melanoma; SF-295 CNS.
What all share (assay): DTP human tumour cell line panel, 48 h

On to `O=C1NC(=O)[C@@H](c2cn3c4c(cccc24)CCC3)[C@@H]1c1c[nH]c2ccccc12`, for which the concentration for 50% growth inhibition (GI50) (in general, the concentration that inhibits growth by half) was 0.332 µM and 0.518 µM with CAKI-1 renal; 0.312 µM and 0.321 µM in the assay with HT29 colon; 0.348 µM and 0.35 µM in the assay on HL-60(TB) leukemia; 1.32 µM and 0.911 µM in the assay on SF-268 CNS; 0.319 µM and 0.337 µM in the assay on SF-539 CNS; 0.273 µM and 0.28 µM with OVCAR-3 ovarian. Also, the GI50 is 0.661 µM and 0.829 µM in the assay on ACHN renal; 0.601 µM and 0.67 µM in the assay on LOX IMVI melanoma; 0.266 µM and 0.289 µM in the assay on SK-MEL-5 melanoma; 0.33 µM and 0.26 µM in the assay on SF-295 CNS. Moreover, the total growth inhibition concentration (TGI) (commonly the concentration at which net growth stops) in the assay on CAKI-1 renal was > 10 µM and 31.4 µM; in the assay with HT29 colon, > 4.4 µM and 1.57 µM; with HL-60(TB) leukemia, > 4.06 µM and 6.88 µM; with SF-268 CNS it was > 10 µM and 17.5 µM; in the assay with SF-539 CNS, 2.39 µM and 5.25 µM; with OVCAR-3 ovarian, > 2.22 µM and 0.789 µM. Besides, the total growth inhibition concentration (TGI) was > 10 µM and 32.9 µM in the assay on ACHN renal; > 10 µM and 14.8 µM with LOX IMVI melanoma; 1.36 µM and 3.07 µM with SK-MEL-5 melanoma; > 10 µM and 5.08 µM in the assay on SF-295 CNS.

Consider `COc1ccc(C(=O)c2cc(OC)c(OC)c(OC)c2)cc1/C=C/C(=O)c1ccc(O)cc1`, for which the GI50 in the assay with CAKI-1 renal is 3.07 µM; with HT29 colon, 5.35 µM; in the assay on HL-60(TB) leukemia, 0.693 µM; in the assay with SF-268 CNS, 3.98 µM; with SF-539 CNS, 2.72 µM; in the assay on OVCAR-3 ovarian, 3 µM. The GI50 was 5.22 µM with ACHN renal, 1.75 µM in the assay on LOX IMVI melanoma, 1.46 µM in the assay with SK-MEL-5 melanoma and 6.5 µM with SF-295 CNS. Further, the TGI was 17.3 µM in the assay on CAKI-1 renal; greater than 100 µM in the assay on HT29 colon; greater than 100 µM in the assay with HL-60(TB) leukemia; 95.1 µM in the assay on SF-268 CNS; 7.9 µM in the assay on SF-539 CNS; 8.47 µM with OVCAR-3 ovarian. Also, the TGI with ACHN renal worked out at 21.5 µM; in the assay with LOX IMVI melanoma, 3.9 µM; in the assay with SK-MEL-5 melanoma, 2.98 µM; in the assay with SF-295 CNS it was 20.1 µM.

On to `CCOC(=O)c1sc2ncn(Cc3cccc(Cl)c3)c(=O)c2c1C`, for which the GI50 in the assay on CAKI-1 renal is 6.19 µM; in the assay on HT29 colon, 19.3 µM; in the assay with HL-60(TB) leukemia it was 18 µM; in the assay with SF-268 CNS it was 15.1 µM; in the assay on SF-539 CNS, 19.3 µM; with OVCAR-3 ovarian it was 12.6 µM. The GI50 with ACHN renal is 14.7 µM; with LOX IMVI melanoma, 14.6 µM; with SK-MEL-5 melanoma it was 14.9 µM; in the assay on SF-295 CNS, 12 µM. For the same compound, the TGI turned out to be 19.2 µM with CAKI-1 renal; 33.4 µM in the assay with HT29 colon; 31.9 µM in the assay with HL-60(TB) leukemia; 28.4 µM in the assay on SF-268 CNS; 33.4 µM in the assay on SF-539 CNS; 25.1 µM in the assay on OVCAR-3 ovarian. Also, the TGI in the assay on ACHN renal came out at 27.9 µM; with LOX IMVI melanoma, 27.8 µM; with SK-MEL-5 melanoma, 28.1 µM; in the assay with SF-295 CNS, 24.4 µM.

Regarding `Cc1ccc(C2=[N+]([O-])c3ccccc3C2=O)cc1`, the TGI was greater than 100 µM in the assay on CAKI-1 renal; greater than 65 µM in the assay on HT29 colon; 33.6 µM in the assay with HL-60(TB) leukemia; greater than 75.1 µM with SF-268 CNS; 77.7 µM with SF-539 CNS; 32.2 µM in the assay with OVCAR-3 ovarian. The TGI in the assay with ACHN renal was 32 µM; with LOX IMVI melanoma, 31.2 µM; with SK-MEL-5 melanoma it was 27.5 µM; in the assay with SF-295 CNS it was greater than 72.5 µM.

On to `C=C(CN1CCc2ccccc2C1)c1ccc(/C=C/C(=O)Nc2ccccc2N)cc1`, for which the GI50 in the assay on CAKI-1 renal was 2.21 µM; with HT29 colon, 59.9 µM; with HL-60(TB) leukemia, 4.28 µM; in the assay on SF-268 CNS, 2.44 µM; with SF-539 CNS, 13 µM; in the assay with OVCAR-3 ovarian, 5.59 µM. In addition, the GI50 in the assay with ACHN renal is 5.4 µM; in the assay on LOX IMVI melanoma, 3.09 µM; in the assay with SK-MEL-5 melanoma it was 13 µM; in the assay on SF-295 CNS it was 3.09 µM. The TGI in the assay with CAKI-1 renal is 94.5 µM; in the assay with HT29 colon, greater than 100 µM; in the assay with HL-60(TB) leukemia it was 76.8 µM; with SF-268 CNS, 55.3 µM; with SF-539 CNS, greater than 100 µM; in the assay with OVCAR-3 ovarian, 51 µM. For the same compound, the TGI in the assay with ACHN renal is greater than 100 µM; with LOX IMVI melanoma it was 16.5 µM; in the assay on SK-MEL-5 melanoma, 31.4 µM; in the assay with SF-295 CNS, 40.6 µM.

For `COc1ccc(/C=C\c2cc(OC)c(OC)c(OC)c2)cc1NC(=O)[C@@H](N)CO`, the GI50 in the assay with CAKI-1 renal was less than 0.01 µM; in the assay on HT29 colon, less than 0.0173 µM; in the assay on HL-60(TB) leukemia it was less than 0.0178 µM; with SF-268 CNS it was 0.0462 µM; in the assay on SF-539 CNS, 0.0145 µM; with OVCAR-3 ovarian, less than 0.0122 µM. Further, the GI50 with ACHN renal is 0.0268 µM; with LOX IMVI melanoma, 0.0376 µM; with SK-MEL-5 melanoma, less than 0.0112 µM; with SF-295 CNS it was less than 0.01 µM. In addition, the TGI in the assay on CAKI-1 renal is greater than 100 µM; in the assay with HT29 colon it was 20.5 µM; with HL-60(TB) leukemia it was 0.758 µM; in the assay on SF-268 CNS, greater than 100 µM; in the assay with SF-539 CNS, 0.0649 µM; in the assay on OVCAR-3 ovarian, 0.0415 µM. The TGI in the assay with ACHN renal was greater than 100 µM; in the assay with LOX IMVI melanoma it was greater than 100 µM; in the assay on SK-MEL-5 melanoma it was 0.0364 µM; with SF-295 CNS, greater than 100 µM.

In the case of `O=C1CC2(CCCc3sccc32)C(=O)N1` (stereo not given), the TGI with CAKI-1 renal, with HT29 colon, with HL-60(TB) leukemia, in the assay on SF-268 CNS, in the assay with SF-539 CNS and in the assay on OVCAR-3 ovarian was greater than 100 µM in each case. Further, the TGI with ACHN renal, with LOX IMVI melanoma, in the assay on SK-MEL-5 melanoma and in the assay with SF-295 CNS was greater than 100 µM each time.

`Cc1cc(S(=O)(=O)Nc2nnc(-c3ccco3)c(-c3ccco3)n2)c(SCc2ccccc2)cc1Cl`: the GI50 was 28.5 µM in the assay on CAKI-1 renal; 23.1 µM with HT29 colon; 24.8 µM in the assay on HL-60(TB) leukemia; 20.1 µM with SF-268 CNS; 19.9 µM with SF-539 CNS; 26.2 µM in the assay on OVCAR-3 ovarian. Further, the GI50 is 20.2 µM with ACHN renal, 24.7 µM with LOX IMVI melanoma, 17.5 µM in the assay with SK-MEL-5 melanoma and 29.2 µM in the assay with SF-295 CNS. The TGI is 55.8 µM in the assay on CAKI-1 renal; 47.1 µM with HT29 colon; 83.1 µM with HL-60(TB) leukemia; 41.2 µM in the assay with SF-268 CNS; 41.1 µM in the assay on SF-539 CNS; 50.9 µM with OVCAR-3 ovarian. Moreover, the TGI came to 41.9 µM in the assay with ACHN renal, 45.4 µM in the assay on LOX IMVI melanoma, 32.5 µM with SK-MEL-5 melanoma and 83.9 µM in the assay on SF-295 CNS.

Regarding `CCCCCCC(O)C/C=C/CCCCCC/C(C(=O)OC)=C(/O)C(=O)OCC` (stereo not given), the TGI with CAKI-1 renal, with HT29 colon, in the assay on HL-60(TB) leukemia, in the assay on SF-268 CNS, in the assay with SF-539 CNS and in the assay on OVCAR-3 ovarian was greater than 100 µM in each case. Further, the TGI in the assay on ACHN renal, in the assay on LOX IMVI melanoma, in the assay with SK-MEL-5 melanoma and with SF-295 CNS was greater than 100 µM throughout.
